Laboratory results published in patent publication US20120058500A1, “PLATELET AGGREGATION USING A MICROFLUIDICS DEVICE” (Monash University, priority 2009, published 2012).
Positions of bridges follow the written chain, without caps; N, C: chain ends. Non-standard residues stand in square brackets, D forms with d. Residues, ends and D or L forms follow the SMILES beside them. hArg = N=C(N)NCCCC[C@H](N)C(=O)O; Mpa = O=C(O)CCS

Assays:
[1] = system: platelet aggregation in human whole blood; experiment: Anti-platelet inhibitor effects in microchannel, c85 g30 e85 100-100 μm format; format: cell-based; settings: 10 mins pre-treatment, hirudin anti-coagulated whole blood, FIG. 22
Method: (§1) Blood samples from subjects were taken via venisection of the antecubital vein using a 10 ml syringe fitted with a 19 guage needle containing 800 U/ml hirudin as anticoagulant.
(§2) Blood perfusion studies through the device were carried out using hiridin (800 U/ml) anticoagulated whole blood taken from consenting human donors. Whole blood samples were incubated at 37° C. for 10 minutes with the lipophylic membrane dye DiOC6 (1 μg/ml) or DiICl2 (1 μg/ml) to allow the cells to be more readily visualised through the device.
The micro-geometry device used in the present example has a contraction angle (θc) of 85°, an expansion angle (θe) of 85°, a gap width of 30 μm, a gap length of 15 μm and channel entry and exit width of 100 μm (c85 g30 e85 100-100 μm format).
The following anti-platelet drugs were used either alone or in combination: • 1. Hirudin: Human whole blood anti-coagulated with Hirudin (800 U/ml) as a control. • 2. Hirudin+MRS: Human (hirudin anti-coagulated) whole blood pre-treated for 10 mins with 100 μM of the P2Y1 adenosine-5′-diphosphate (ADP) antagonist N6-methyl-2′-deoxyadenosine-3′,5′-bisphosphate (MRS2179). • 3. Hirudin+2Me: Human (hirudin anti-coagulate) whole blood pre-treated for 10 mins with 10 μM of the P2Y12 (ADP) antagonist 2-methylthio-AMP (2MesAMP). • 4. […]

[2] = system: platelet aggregation in human blood; settings: treated samples versus normal samples, specific microchannel geometries
Source text: It will be further appreciated that the device and method of the invention can be used to assay the effectiveness of particular drugs or substances.

[3] = system: platelet aggregation in hirudin-anticoagulated whole blood; experiment: Whole blood perfusion through step geometry micro-shear gradient device (c90 g10 e60 100-700 μm format), platelet aggregation traces; format: cell-based, human; settings: whole blood treated 10 minutes with 30 μg/ml prior to perfusion; input shear rate 1,800 s^-1; FIG. 11c
Method: as §1, §2
FIG. 11a is a representative micrograph (40× magnification) sequence of human (hirudin anti-coagulated) blood perfusion through a micro-shear gradient device consisting of an in-flow (entry) width of 100 μm, a contraction angle (θc) of 90°, a gap height of 10 μm, an expansion angle (θe)) of 60°, and an expansion/exit width of 700 μm. The grey arrow denotes the point of initial aggregation [t=12 sec], the black arrow designates the limit of thrombus growth in the expansion zone (representative of n=3 experiments).
FIG. 11c comprises representative aggregation traces showing the response of whole blood perfusion through the PDMS microchannel device depicted in FIG. 11a. […]

[4] = system: platelet aggregation in whole blood; experiment: Real-time epi-fluorescence imaging of DiOC6 labeled whole blood perfusion through the c60g20e60 microchannel; format: cell-based, human; settings: 20 μg/ml; blood also pre-treated with apyrase, MRS2179, 2-MeSAMP, Indomethacin, hirudin; 16 μL/min, input strain rate 1,800 s-1
Method: as §1, §2
FIG. 20a represents real-time epi-fluorescence imaging of DiOC6 labeled whole blood perfusion at a constant flow rate of 16 μL/min (input strain rate=1,800 s−1) through the c60g20e60 geometric format over a 10 min timeframe, following pre-treatment for 10 minutes with the platelet inhibitors apyrase (0.02 U/ml), N6-methyl-2′-deoxyadenosine-3′,5′-bisphosphate (MRS2179 at 100 μM) and 2-methylthio-AMP (2-MeSAMP at 10 μM) to block ADP; Indomethacin (10 μM) to block TXA2; and hirudin (800 U/ml) to block thrombin. […] To investigate the platelet adhesion receptors mediating the aggregation response, whole blood samples were pretreated with the anti-integrin αIIbβ3 ab c7E3 (20 μg/ml) to block the platelet integrin αIIbβ3 or the anti-GPIb IgG Alma12 (50 μg/ml) to block platelet GPIb/V/IX engagement of VWF.

## CNc1ncnc2c1ncn2[C@H]1C[C@H](OP(=O)(O)O)[C@@H](COP(=O)(O)O)O1 [MRS, N6-methyl-2′-deoxyadenosine-3′,5′-bisphosphate]
[1]; 100 μM, compared with the P2Y12 inhibitor
  effect on the aggregation profile in the device: much more marked effect

## CSc1nc(N)c2ncn([C@@H]3O[C@H](COP(=O)(O)O)[C@@H](O)[C@H]3O)c2n1 [inhibitor of the P2Y12 (ADP) receptor, 2-methylthio-AMP]
[1]; 10 μM
  reduction in overall aggregation in the device: 50%

## N=C(N)NCCCC[C@@H]1NC(=O)CCSSC[C@@H](C(N)=O)NC(=O)[C@@H]2CCCN2C(=O)[C@H](Cc2c[nH]c3ccccc23)NC(=O)[C@H](CC(=O)O)NC(=O)CNC1=O [integrilin] ([Mpa][hArg]GDWPC-NH2; disulfide 1-7)
[2]
  platelet aggregation profile versus normal samples: different platelet aggregation profile

B1: c7E3 Fab: anti-integrin αIIbβ3 ab c7E3, used to block the platelet integrin αIIbβ3 (antibody, chains of the INN, looked up, V domains shown)
VH: EVQLQQSGTVLARPGASVKMSCEASGYTFTNYWMHWVKQRPGQGLEWIGAIYPGNSDTSYIQKFKGKAKLTAVTSTTSVYMELSSLTNEDSAVYYCTLYDGYYVFAYWGQGTLVTVSA
VL: EIVLTQSPVTLSVTPGDSVSLSCRASRDISNNLHWFQQTSHESPRLLIKYASQSMSGIPSRFSGSGSGTDFTLSINSVETEDFGMYFCQQTNSWPYTFGGGTKLEIK
modifications: Fab
[3]
  initial recruitment at the stenosis apex: markedly delayed
  overall aggregation: suppressed
[4]
  platelet aggregation within the c60g20e60 geometry: completely inhibited
